Source: patent US20150118179A1, “BIOCIDAL COMPOUNDS AND METHODS FOR USING SAME” (UNIVERSITY OF MANITOBA, priority 2012, published 2015)
Several values for one entry are separate records, joined by “and”; a condition that tells them apart may be missing. Identical values can stand only once.

Experiments:
CA-MRSA 40065 = test: Biocidal activity in bacterial suspension (Example 18); assay type: cell-based, Staphylococcus aureus; settings: 15 ppm [Cl+]
Description: Logarithmic-phase cultures of MRSA were prepared using similar way except TSA broth was used instead.
(§1) Biocidal activity of synthetic compounds was completed as followed. To 20 mL of bacterial suspension (10^5 or 10^6 cfu/mL) in a centrifuge tube was added 30 μL solution of synthetic compounds (0.282 M stock solution) to achieve a final [Cl^+] of 15 ppm. Timing of the exposure to the disinfectant was started immediately with the addition of the synthetic compound. After predetermined contact time, 1.0 mL aliquots were withdrawn and added to an equal volume of 0.02 N sodium thiosulfate in PBS (0.1 M, pH 7.4). The quenched suspension was serially diluted and 100 μL of each resulting dilution was placed onto nutrient agar plates. After being incubated at 37° C. for 24 hours, the viable bacterial colonies on the plates were counted. Bacterial reduction was reported according to:
(§2) Percentage reduction of bacteria (%)=(A−B)/A×100
(§3) Log reduction=Log(A/B) (4)
(§4) where A is the number of bacteria in the starting inoculum (cfu/mL), and B is the number of bacteria retrieved from synthetic compounds (cfu/mL).

P. aeruginosa 73104 = test: as above; assay type: cell-based, Pseudomonas aeruginosa; settings: 15 ppm [Cl+]; for Reduction of P. aeruginosa: 10^6 cfu/mL P. aeruginosa, within 60 min of contact
Description: Logarithmic-phase cultures of P. aeruginosa were prepared by initially suspending several colonies in cation-supplemented Mueller-Hinton broth (Oxoid, Nepean, Ontario, Canada) at a density equivalent to a 0.5 McFarland standard (1×10^8 cfu/mL). This suspension was then diluted 1:100 and 20 μL of the diluted suspension was further diluted in 60 mL of cation-supplemented Mueller-Hinton broth. Following overnight growth at 37° C., suspensions were diluted 1:[…] to get inoculums of approximately 1×10^6 or 1×10^5 cfu/mL.
as §1, §2, §3, §4

[1] = Table 2, contact 3 min, inoculum 1.57-1.75 × 10^6 CFU/mL
[2] = Table 2, contact 5 min, inoculum 1.57-1.75 × 10^6 CFU/mL
[3] = Table 2, contact 10 min, inoculum 1.57-1.75 × 10^6 CFU/mL
[4] = Table 2, contact 60 min, inoculum 1.57-1.75 × 10^6 CFU/mL
[5] = Table 3, contact 3 min, inoculum 2.26 × 10^5 CFU/mL
[6] = Table 3, contact 5 min, inoculum 2.26 × 10^5 CFU/mL
[7] = Table 3, contact 10 min, inoculum 2.26 × 10^5 CFU/mL
[8] = Table 3, contact 60 min, inoculum 2.26 × 10^5 CFU/mL
[9] = Table 3, contact 90 min, inoculum 2.26 × 10^5 CFU/mL
[10] = Table 4, contact 3 min, inoculum 2.26-2.98 × 10^5 CFU/mL
[11] = Table 4, contact 5 min, inoculum 2.26-2.98 × 10^5 CFU/mL
[12] = Table 4, contact 10 min, inoculum 2.26-2.98 × 10^5 CFU/mL
[13] = Table 4, contact 20 min, inoculum 2.26-2.98 × 10^5 CFU/mL
[14] = Table 4, contact 30 min, inoculum 2.26-2.98 × 10^5 CFU/mL
[15] = Table 4, contact 45 min, inoculum 2.26-2.98 × 10^5 CFU/mL
[16] = Table 4, contact 60 min, inoculum 2.26-2.98 × 10^5 CFU/mL
[17] = Table 5, contact 3 min, inoculum 2.83 × 10^6 cfu/mL
[18] = Table 5, contact 5 min, inoculum 2.83 × 10^6 cfu/mL
[19] = Table 5, contact 10 min, inoculum 2.83 × 10^6 cfu/mL
[20] = Table 5, contact 20 min, inoculum 2.83 × 10^6 cfu/mL
[21] = Table 5, contact 30 min, inoculum 2.83 × 10^6 cfu/mL
[22] = Table 5, contact 45 min, inoculum 2.83 × 10^6 cfu/mL
[23] = Table 5, contact 60 min, inoculum 2.83 × 10^6 cfu/mL
[24] = Table 2, contact 1 min, inoculum 1.57-1.75 × 10^6 CFU/mL

Compound	Bacteria reduction % (CA-MRSA 40065; [1])	Bacteria reduction Log10 (CA-MRSA 40065; [1])	Bacteria reduction % (CA-MRSA 40065; [2])	Bacteria reduction Log10 (CA-MRSA 40065; [2])	Bacteria reduction % (CA-MRSA 40065; [3])	Bacteria reduction Log10 (CA-MRSA 40065; [3])	Bacteria reduction % (P. aeruginosa 73104; [10])	Bacteria reduction Log (P. aeruginosa 73104; [10])	Bacteria reduction % (P. aeruginosa 73104; [11])	Bacteria reduction Log (P. aeruginosa 73104; [11])	Bacteria reduction % (P. aeruginosa 73104; [12])	Bacteria reduction Log (P. aeruginosa 73104; [12])	Bacteria reduction % (P. aeruginosa 73104; [13])	Bacteria reduction Log (P. aeruginosa 73104; [13])	Bacteria reduction % (P. aeruginosa 73104; [14])	Bacteria reduction Log (P. aeruginosa 73104; [14])	Bacteria reduction % (P. aeruginosa 73104; [15])	Bacteria reduction Log (P. aeruginosa 73104; [15])	Bacteria reduction % (P. aeruginosa 73104; [16])	Bacteria reduction Log (P. aeruginosa 73104; [16])	further results
CC1(C)C(=O)N(CCC[N+](C)(C)CC[N+](C)(C)C)C(=O)N1Cl.[Cl-].[Cl-] [Compound 12]	88.0%	0.92 Log10	92.3%	0.92 Log10	94.2%	1.24 Log10	39.8%	0.22 Log	44.7%	0.26 Log	62.8%	0.43 Log	99.70%	2.50 Log	100%	4.82 Log	100%	5.47 Log	100%	5.47 Log	Bacteria reduction % (CA-MRSA 40065; [4]): 99.5%; Bacteria reduction Log10 (CA-MRSA 40065; [4]): 2.31 Log10; Reduction of P. aeruginosa (P. aeruginosa 73104): cannot bring any significant reduction; Bacteria reduction % (P. aeruginosa 73104; [5]): 39.8 ± 10.0%; Bacteria reduction % (P. aeruginosa 73104; [6]): 44.7 ± 1.9%; Bacteria reduction Log10 (P. aeruginosa 73104; [7]): 0.43 ± 0.01 Log10; Bacteria reduction % (P. aeruginosa 73104; [8]): 100%; Bacteria reduction Log10 (P. aeruginosa 73104; [8]): 5.35 Log10; Bacteria reduction % (P. aeruginosa 73104; [9]): 100%; Bacteria reduction Log10 (P. aeruginosa 73104; [9]): 5.35 Log10
CCCCCCCCCCCC[N+](C)(C)CCn1cc(C[N+](C)(C)CCCN2C(=O)N(Cl)C(C)(C)C2=O)nn1 [Compound 16]	–	–	–	–	–	–	99.6%	2.62 Log	99.97%	4.32 Log	100%	5.47 Log	100%	5.47 Log	100%	5.47 Log	100%	5.47 Log	100%	5.47 Log	Bacteria reduction % (CA-MRSA 40065; [17]): 84.4%; Bacteria reduction % (CA-MRSA 40065; [18]): 93.4%; Bacteria reduction Log (CA-MRSA 40065; [18]): > 1 Log and 1.18 Log; Bacteria reduction % (CA-MRSA 40065; [19]): 99.8%; Bacteria reduction Log (CA-MRSA 40065; [19]): 2.77 Log; Bacteria reduction % (CA-MRSA 40065; [20]): 100%; Bacteria reduction Log (CA-MRSA 40065; [20]): 6.45 Log; Bacteria reduction % (CA-MRSA 40065; [21]): 100%; Bacteria reduction Log (CA-MRSA 40065; [21]): 6.45 Log; Bacteria reduction % (CA-MRSA 40065; [22]): 100%; Bacteria reduction Log (CA-MRSA 40065; [22]): 6.45 Log; Bacteria reduction % (CA-MRSA 40065; [23]): 100%; Bacteria reduction Log (CA-MRSA 40065; [23]): 6.45 Log
CC1(C)C(=O)N(CCC[N+](C)(C)CCCN2C(=O)N(Cl)C(C)(C)C2=O)C(=O)N1Cl.[Cl-] [Compound 14]	79.1%	0.68 Log10	64.3%	0.45 Log10	91.9%	1.09 Log10	22.6%	0.11 Log	24.8%	0.13 Log	26.6%	0.14 Log	70.8%	–	99.96%	3.39 Log	100%	5.47 Log	100%	5.47 Log	Bacteria reduction % (CA-MRSA 40065; [24]): 85.8%; Bacteria reduction Log10 (CA-MRSA 40065; [24]): 0.85 Log10; Bacteria reduction % (CA-MRSA 40065; [4]): 99.5%; Bacteria reduction Log10 (CA-MRSA 40065; [4]): 2.32 Log10; Reduction of P. aeruginosa (P. aeruginosa 73104): cannot bring any significant reduction; Bacteria reduction % (P. aeruginosa 73104; [5]): 22.6 ± 4.4%; Bacteria reduction % (P. aeruginosa 73104; [6]): 24.8 ± 10.0%; Bacteria reduction % (P. aeruginosa 73104; [7]): 26.6% and 26.6 ± 12.5%; Bacteria reduction Log10 (P. aeruginosa 73104; [7]): 0.14 ± 0.07 Log10; Bacteria reduction % (P. aeruginosa 73104; [8]): 100%; Bacteria reduction Log10 (P. aeruginosa 73104; [8]): 5.35 Log10; Bacteria reduction % (P. aeruginosa 73104; [9]): 100%; Bacteria reduction Log10 (P. aeruginosa 73104; [9]): 5.35 Log10
CCCCCCCCCCCC[N+](C)(C)CCn1cc(C[N+](C)(C)CCCN2C(=O)NC(C)(C)C2=O)nn1 [Compound 15]	–	–	–	–	–	–	75.7%	0.74 Log	98.4%	1.88 Log	99.9%	3.02 Log	99.97%	4.32 Log	100%	5.47 Log	100%	5.47 Log	100%	5.47 Log	Bacteria reduction % (CA-MRSA 40065; [17]): 86.9%; Bacteria reduction % (CA-MRSA 40065; [18]): 79.5%; Bacteria reduction Log (CA-MRSA 40065; [18]): 0.69 Log; Bacteria reduction % (CA-MRSA 40065; [19]): 85.1%; Bacteria reduction Log (CA-MRSA 40065; [19]): 0.83 Log; Bacteria reduction % (CA-MRSA 40065; [20]): 67.8%; Bacteria reduction Log (CA-MRSA 40065; [20]): 0.49 Log; Bacteria reduction % (CA-MRSA 40065; [21]): 79.8%; Bacteria reduction Log (CA-MRSA 40065; [21]): 0.70 Log; Bacteria reduction % (CA-MRSA 40065; [22]): 92.6%; Bacteria reduction Log (CA-MRSA 40065; [22]): 1.13 Log; Bacteria reduction % (CA-MRSA 40065; [23]): 87.3%; Bacteria reduction Log (CA-MRSA 40065; [23]): 0.89 Log; Bacteria reduction % (CA-MRSA 40065; independent of contact duration (3-60 minutes)): around 80%
